Assay results taken from PubChem BioAssay (NCI).
“And” between values parts separate entries of the source, which are not always exact repeats. Identical values can stand only once.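 Briefly, cells in 96-well plates were exposed to five compound concentrations for 48 h, and endpoints were estimated by linear interpolation. GI50 = concentration required for 50% inhibition of growth. At the TGI there is no net growth.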 Where a SMILES comes first, the peptide text is derived from it. [ ]: non-standard residue; d: D form. The star is where a group is joined. ξ: configuration not given here. X3 = COc1ccc(C(N*)c2ccc(OC)cc2)cc1; NMeF = CN[C@@H](Cc1ccccc1)C(=O)O; NMeD = CN[C@@H](CC(=O)O)C(=O)O; NMeV = CN[C@H](C(=O)O)C(C)C; ξNMeV = CNC(C(=O)O)C(C)C; Boc = CC(C)(C)OC(=O)*; ξNMeA = CNC(C)C(=O)O; ξV = CC(C)C(N)C(=O)O

Experiments:
Assay in all cases: growth of human tumour cells (NCI), 48 h
SF-268 CNS = tested on: SF-268 CNS
SNB-19 CNS = tested on: SNB-19 CNS
HCC-2998 colon = tested on: HCC-2998 colon
MALME-3M melanoma = tested on: MALME-3M melanoma
SF-539 CNS = tested on: SF-539 CNS
K-562 leukemia = tested on: K-562 leukemia
SNB-75 CNS = tested on: SNB-75 CNS
CCRF-CEM leukemia = tested on: CCRF-CEM leukemia
T-47D breast = tested on: T-47D breast
BT-549 breast = tested on: BT-549 breast

| Compound | GI50 (SF-268 CNS) | TGI (SF-268 CNS) | GI50 (SNB-19 CNS) | TGI (SNB-19 CNS) | GI50 (HCC-2998 colon) | TGI (HCC-2998 colon) | GI50 (MALME-3M melanoma) | TGI (MALME-3M melanoma) | GI50 (SF-539 CNS) | TGI (SF-539 CNS) | GI50 (K-562 leukemia) | TGI (K-562 leukemia) | GI50 (SNB-75 CNS) | TGI (SNB-75 CNS) | GI50 (CCRF-CEM leukemia) | TGI (CCRF-CEM leukemia) | GI50 (T-47D breast) | TGI (T-47D breast) | GI50 (BT-549 breast) | TGI (BT-549 breast) |
| --- | --- | --- | --- | --- | --- | --- | --- | --- | --- | --- | --- | --- | --- | --- | --- | --- | --- | --- | --- | --- |
| Nc1n[nH]c2cc(F)c([C@@H]3Nc4ccc5[nH]ncc5c4[C@H]4C5CCC(C5)[C@@H]34)cc12 (stereo partly drawn) | 0.368 µM | 14.9 µM | 1.03 µM | > 35 µM | 0.177 µM | 1.93 µM | 1.47 µM | 28.3 µM | 0.115 µM | 0.322 µM | 0.103 µM | > 50 µM | 0.0988 µM | 1.12 µM | 0.176 µM | > 50 µM | 9.96 µM | > 50 µM | 0.141 µM | 2.59 µM |
| COCCOc1ccc(-c2nc3ccc(-c4nc5ccc(N6CCN(C)CC6)cc5[nH]4)cc3[nH]2)cc1 | 0.576 µM | 5.67 µM | 1.87 µM | 10.5 µM | 1.78 µM | 3.77 µM | 0.165 µM | 1.55 µM | 1.22 µM | 2.83 µM | 0.911 µM | > 100 µM | 0.486 µM | 3.14 µM | 1.02 µM | > 100 µM | 1 µM | 9.09 µM | 1.76 µM | 3.96 µM |
| COc1ccc(C(NC(=O)C[C@@H](C(=O)N(C)C(C)C(=O)O)N(C)C(=O)[C@@H]2CCCN2C(=O)[C@H](C(C)C)N(C)C(=O)C(C(C)C)N(C)C(=O)[C@H](Cc2ccccc2)N(C)C(=O)C(NC(=O)OC(C)(C)C)C(C)C)c2ccc(OC)cc2)cc1 (stereo partly drawn) (Boc-[ξV][NMeF][ξNMeV][NMeV]P[NMeD](X3)[ξNMeA]-OH) | 15.1 µM | 31.9 µM and 28.6 µM | 17.5 µM | 37.5 µM and 33 µM | 19.3 µM | 14.8 µM and 36 µM | 20.5 µM | 37.5 µM and 37.9 µM | 22.5 µM | 17.9 µM and 39.8 µM | 18.9 µM | 26.9 µM and 43.8 µM | 15.8 µM | 17.6 µM and 30.7 µM | 19.8 µM | 17.5 µM and 41.6 µM |  | 36.7 µM |  | 15.4 µM |
| COc1ccc2nc3cc(Cl)ccc3c(NCCNCC(C)O)c2c1 (stereo not drawn) | 2.36 µM | 12.3 µM | 2.19 µM | 9.78 µM | 1.38 µM | 2.94 µM | 1.82 µM | 3.68 µM | 1.65 µM | 3.51 µM | 1.28 µM | 10 µM | 1.9 µM | 8.71 µM | 2.46 µM | 8.66 µM | 2.16 µM | 6.72 µM | 7.92 µM | 21.8 µM |
| O=C1CCCCN1c1ccccc1C#C/C=C\C#Cc1ccccc1C(F)(F)F | 3.81 µM | > 50 µM | > 50 µM | > 50 µM | 0.951 µM | 2.5 µM | 2.29 µM | 39.2 µM | 1.44 µM | 4.43 µM | 1.46 µM | 8.65 µM | 1.61 µM | 11.4 µM | 1.56 µM | 3.96 µM | > 50 µM | > 50 µM | 2.59 µM | 14.5 µM |
| CCn1c(-c2nonc2N)nc2c(C#CC(C)(C)O)nc(OC[C@@H](N)c3ccccc3)cc21 | 5.04 µM | 9.22 µM | 6 µM | 11.6 µM | 4.31 µM | 8.14 µM | 5.46 µM | 9.77 µM | 3.73 µM | 7.71 µM | 5.19 µM | 14.1 µM | 2.45 µM | 5.66 µM | 4.08 µM | 23.3 µM | 3.8 µM | 8.24 µM | 3.94 µM | 7.48 µM |
| CN(C)CC1CC/C(=C\c2ccc(O)cc2)C1=O (stereo not drawn) |  | 23.1 µM |  | 31.3 µM |  | 25.5 µM |  | 6.62 µM |  | 17.1 µM |  | 5.76 µM |  | 25.8 µM |  | 3.53 µM |  | 5.34 µM |  | 3.73 µM |
| COc1ccc(CCN=C2NC(=O)/C(=C/c3ccc4ncccc4c3)S2)cc1 | > 25 µM | > 25 µM | > 25 µM | > 25 µM | > 25 µM | > 25 µM | > 25 µM | > 25 µM | > 25 µM | > 25 µM | > 25 µM | > 25 µM | > 25 µM | > 25 µM | > 25 µM | > 25 µM | > 25 µM | > 25 µM | > 25 µM | > 25 µM |
| COc1cccc(C(=O)NC(c2ccc(C)cc2)c2cc(Cl)c3cccnc3c2O)c1 (stereo not drawn) | 0.619 µM | 12.4 µM | 0.371 µM | 29 µM | 0.786 µM | 15.1 µM | 1.42 µM | 15.6 µM | 0.445 µM | 3.27 µM | 0.466 µM | 54.8 µM | 0.326 µM | 11.9 µM | 0.366 µM | 11.7 µM | 0.517 µM | 12.1 µM | 1.32 µM | 18.6 µM |
| O=C(/C=C/c1ccc(O)cc1)c1ccc(O)cc1 |  | 71.8 µM |  | > 78.2 µM |  | 52.7 µM |  | 70 µM |  | 54.2 µM |  | > 82.3 µM |  | 51.7 µM |  | > 85 µM |  | > 100 µM |  | > 75.3 µM |
| c1ccc(Sc2ncnc3ccccc23)cc1 | 13.9 µM | 41.7 µM | 18.6 µM | 51.5 µM | 15.4 µM | 28.7 µM | 10.8 µM | 29.8 µM | 15.9 µM | 34.2 µM | 9.72 µM | > 100 µM | 12.1 µM | 35 µM | 2.9 µM | 61.4 µM | 9.72 µM | 28.4 µM | 5.42 µM | 22 µM |
